Where a name gives a salt, the structure may show the parent alone.
The molecules below were run against T1, recombinant guanylate cyclase reporter cell line (Rattus norvegicus, UniProt P19686+P20595) (assay: B-2. Action on recombinant guanylate cyclase reporter cell line). Conditions: MEC = minimal effective concentration; in some cases mean values from individual determinations.
T1 construct: expressed in transfected cells
T1 sequence (P20595 1-619): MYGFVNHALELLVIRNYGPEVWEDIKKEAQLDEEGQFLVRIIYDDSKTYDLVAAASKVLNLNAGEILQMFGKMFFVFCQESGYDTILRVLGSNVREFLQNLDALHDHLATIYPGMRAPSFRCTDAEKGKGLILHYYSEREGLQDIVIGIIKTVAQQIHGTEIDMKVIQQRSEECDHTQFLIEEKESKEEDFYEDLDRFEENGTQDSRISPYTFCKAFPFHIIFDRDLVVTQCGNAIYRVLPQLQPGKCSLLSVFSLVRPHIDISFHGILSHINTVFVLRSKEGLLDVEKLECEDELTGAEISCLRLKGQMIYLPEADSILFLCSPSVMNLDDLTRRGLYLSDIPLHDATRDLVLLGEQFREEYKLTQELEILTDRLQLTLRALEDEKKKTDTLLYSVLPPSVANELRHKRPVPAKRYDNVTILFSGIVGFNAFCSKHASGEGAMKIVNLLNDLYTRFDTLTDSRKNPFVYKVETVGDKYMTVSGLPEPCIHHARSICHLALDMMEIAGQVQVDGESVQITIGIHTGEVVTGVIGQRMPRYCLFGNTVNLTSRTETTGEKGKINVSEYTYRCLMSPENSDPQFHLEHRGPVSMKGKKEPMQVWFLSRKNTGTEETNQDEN
T1 sequence (P19686 1-690): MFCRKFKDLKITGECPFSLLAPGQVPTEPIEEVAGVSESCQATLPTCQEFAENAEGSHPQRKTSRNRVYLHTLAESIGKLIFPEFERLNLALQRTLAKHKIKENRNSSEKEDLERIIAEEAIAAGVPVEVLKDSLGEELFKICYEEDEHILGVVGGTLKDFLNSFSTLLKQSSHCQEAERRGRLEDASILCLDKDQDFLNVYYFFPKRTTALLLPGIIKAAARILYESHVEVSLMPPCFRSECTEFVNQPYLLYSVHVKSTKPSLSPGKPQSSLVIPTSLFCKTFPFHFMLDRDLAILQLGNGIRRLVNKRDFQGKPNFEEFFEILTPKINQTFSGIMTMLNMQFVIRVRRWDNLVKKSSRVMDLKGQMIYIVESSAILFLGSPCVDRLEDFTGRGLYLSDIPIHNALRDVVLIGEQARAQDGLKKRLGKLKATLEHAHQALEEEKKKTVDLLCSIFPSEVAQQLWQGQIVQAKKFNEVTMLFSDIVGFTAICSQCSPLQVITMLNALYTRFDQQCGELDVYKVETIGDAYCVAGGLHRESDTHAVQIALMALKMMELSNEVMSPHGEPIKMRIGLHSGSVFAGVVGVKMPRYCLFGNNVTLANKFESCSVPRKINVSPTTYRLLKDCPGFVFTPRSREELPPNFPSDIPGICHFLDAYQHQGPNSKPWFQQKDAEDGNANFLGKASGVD
Type: cell-based
Procedure, shortened: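 Read-out: MEC (minimal effective concentration) in cells. Reporter line carries recombinant sGC. Some values are averages of single runs.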

Row | MEC [µM] | Structure (SMILES)
1 | 0.30 | Cc1nc2c(OCc3c(F)cccc3F)cccn2c1C(=O)NC(C)[C@@H](C)N (stereo partly drawn) [Example 121, N-[(3R)-3-Aminobutan-2-yl]-8-[(2,6-difluorobenzyl)oxy]-2-methylimidazo[1,2-a]pyridine-3-carboxamide]
2 | 3.00 | CCCC(C)(N)CNC(=O)c1c(C)nc2c(OCc3ccccc3Br)cc(C)cn12 (stereo not shown) [Example 353, N-(2-amino-2-methylpentyl)-8-[(2-bromobenzyl)oxy]-2,6-dimethylimidazo[1,2-a]pyridine-3-carboxamide]
3 | 1.00 | CCCC(C)(N)CNC(=O)c1c(C)nc2c(OCc3cccc(F)c3)cc(C)cn12 (racemic) [Example 348, rac-N-(2-amino-2-methylpentyl)-8-[(3-fluorobenzyl)oxy]-2,6-dimethylimidazo[1,2-a]pyridine-3-carboxamide]
4 | 1.00 | Cc1cc(OCc2c(F)cccc2F)c2nc(C)c(C(=O)NC[C@@H]3CCCN3)n2c1 [Example 115, 8-[(2,6-difluorobenzyl)oxy]-2,6-dimethyl-N-[(2S)-pyrrolidin-2-ylmethyl]imidazo[1,2-a]-pyridine-3-carboxamide]
5 | 0.3 | CCC(C)(N)CNC(=O)c1c(C)nc2c(OCc3c(F)cccc3F)cc(C(F)F)cn12 (single isomer, unassigned; enantiomer a) [Example 287, ent-N-(2-amino-2-methylbutyl)-8-[(2,6-difluorobenzyl)oxy]-6-(difluoromethyl)-2-methylimidazo[1,2-a]pyridine-3-carboxamide Formate (Enantiomer A)]
6 | 1.00 | CCOC(=O)c1cccc(C(CN)NC(=O)c2c(C)nc3c(OCc4c(F)cccc4F)cc(C)cn23)n1 (racemic) [Example 397, rac-ethyl 6-{2-amino-1-[({8-[(2,6-difluorobenzyl)oxy]-2,6-dimethylimidazo[1,2-a]pyridin-3-yl}carbonyl)amino]ethyl}pyridine-2-carboxylate]
7 | 1.00 | COCC(C)(N)CNC(=O)c1c(C)nc2c(OCc3c(F)cccc3F)cc(Cl)cn12 (single isomer, unassigned) [Example 196, ent-N-(2-Amino-3-methoxy-2-methylpropyl)-6-chloro-8-[(2,6-difluorobenzyl)oxy]-2-methylimidazo[1,2-a]pyridine-3-carboxamide]
8 | 1.00 | CCCC[C@H](CN(CC)CC)NC(=O)c1c(C)nc2c(OCc3c(F)cccc3F)cccn12 [Example 69, ent-N-[(2R)-1-(diethylamino)hexan-2-yl]-8-[(2,6-difluorobenzyl)oxy]-2-methylimidazo[1,2-a]-pyridine-3-carboxamide]
9 | 3.00 | Cc1cc(OCc2c(F)cccc2F)c2nc(C)c(C(=O)NC[C@H]3CCCN3)n2c1 [Example 116, 8-[(2,6-difluorobenzyl)oxy]-2,6-dimethyl-N-[(2R)-pyrrolidin-2-ylmethyl]imidazo[1,2-a]-pyridine-3-carboxamide]
10 | 0.30 | Cc1nc2c(OCc3c(F)cccc3F)cccn2c1C(=O)NC(CN)c1ccc(F)cc1F (stereo not drawn) [Example 21, ent-N-[2-Amino-1-(2,4-difluorophenyl)ethyl]-8-[(2,6-difluorobenzyl)oxy]-2-methylimidazo[1,2-a]-pyridine-3-carboxamide]
11 | 1.00 | Cc1nc2c(OCc3c(F)cccc3F)cccn2c1C(=O)NCC1NCCc2ccccc21 (racemic) [Example 80, rac-8-[(2,6-difluorobenzyl)oxy]-2-methyl-N-(1,2,3,4-tetrahydroisoquinolin-1-ylmethyl)-imidazo[1,2-a]pyridine-3-carboxamide]
12 | 0.30 | Cc1cc(OCc2c(F)cccc2F)c2nc(C)c(C(=O)NC(CN)c3ccc4c(c3)OCCO4)n2c1 (racemic) [Example 388, rac-N-[2-amino-1-(2,3-dihydro-1,4-benzodioxin-6-yl)ethyl]-8-[(2,6-difluorobenzyl)oxy]-2,6-dimethylimidazo[1,2-a]pyridine-3-carboxamide]
13 | 0.30 | Cc1nc2c(OCc3c(F)cccc3F)cccn2c1C(=O)NC(CN)COC(C)C (single isomer, unassigned) [Example 93, ent-N-(1-Amino-3-isopropoxypropan-2-yl)-8-[(2,6-difluorobenzyl)oxy]-2-methylimidazo[1,2-a]-pyridine-3-carboxamide]
14 | 0.30 | CCCC(C)(N)CNC(=O)c1c(C)nc2c(OCc3c(F)c(F)cc(F)c3F)cc(C)cn12 (racemic) [Example 311, rac-N-(2-amino-2-methylpentyl)-2,6-dimethyl-8-[(2,3,5,6-tetrafluorobenzyl)oxy]imidazo[1,2-a]pyridine-3-carboxamide]
15 | 0.10 | CCCC(C)(N)CNC(=O)c1c(CC)nc2c(OCc3c(F)cccc3F)cc(C)cn12 (racemic) [Example 301, rac-N-(2-amino-2-methylpentyl)-8-[(2,6-difluorobenzyl)oxy]-2-ethyl-6-methylimidazo[1,2-a]pyridine-3-carboxamide]
16 | 0.30 | CCC(C)(N)CNC(=O)c1c(C)nc2c(OCc3c(F)cccc3F)cccn12 (racemic) [Example 254, rac-N-(2-Amino-2-methylbutyl)-8-[(2,6-difluorobenzyl)oxy]-2-methylimidazo[1,2-a]pyridine-3-carboxamide]
17 | 0.10 | Cc1nc2c(OCc3c(F)cccc3F)cc(Cl)cn2c1C(=O)NCC(C)(N)CC(C)C (single isomer, unassigned) [Example 226, ent-N-(2-Amino-2,4-dimethylpentyl)-6-chloro-8-[(2,6-difluorobenzyl)oxy]-2-methylimidazo[1,2-a]pyridine-3-carboxamide]
18 | 1.00 | COCCNCCNC(=O)c1c(C)nc2c(OCc3c(F)cccc3F)cc(Cl)cn12 [Example 153, 6-chloro-8-[(2,6-difluorobenzyl)oxy]-N-{2-[(2-methoxyethyl)amino]ethyl}-2-methylimidazo[1,2-a]pyridine-3-carboxamide]
19 | 1.00 | Cc1nc2c(OCc3c(F)cccc3F)cccn2c1C(=O)NC(C)[C@@H](C)N (single isomer, unassigned) [Example 176]
20 | 1.00 | Cc1cc(OCc2c(F)cccc2F)c2nc(C)c(C(=O)NC(C#N)CN)n2c1 (racemic) [Example 416, rac-N-(2-amino-1-cyanoethyl)-8-[(2,6-difluorobenzyl)oxy]-2,6-dimethylimidazo[1,2-a]pyridine-3-carboxamide]
21 | 0.30 | CCC1CC(NC(=O)c2c(C)nc3c(OCc4c(F)cccc4F)cc(C)cn23)c2nc(C(F)(F)F)ccc2N1 (single isomer, unassigned; ent-8) [Example 325, ent-8-[(2,6-Difluorobenzyl)oxy]-N-[2-ethyl-6-(trifluoromethyl)-1,2,3,4-tetrahydro-1,5-naphthyridin-4-yl]-2,6-dimethylimidazo[1,2-a]pyridine-3-carboxamide]
22 | 0.30 | Cc1nc2c(OCc3c(F)cccc3F)cccn2c1C(=O)NC1CCNc2ccc(F)cc21 (single isomer, unassigned; ent-8) [Example 105, ent-8-[(2,6-difluorobenzyl)oxy]-N-(6-fluoro-1,2,3,4-tetrahydroquinolin-4-yl)-2-methylimidazo[1,2-a] pyridine-3-carboxamide]
23 | 3.00 | Cc1nc2c(OCc3c(F)cccc3F)cccn2c1C(=O)NCC(C)(C)CN [Example 103, N-(3-amino-2,2-dimethylpropyl)-8-[(2,6-difluorobenzyl)oxy]-2-methylimidazo[1,2-a]-pyridine-3-carboxamide]
24 | 1.00 | Cc1cc(OCc2c(F)cccc2F)c2nc(C)c(C(=O)NC(CN)c3cccc(OC(F)F)c3)n2c1 (racemic) [Example 392, rac-N-{2-amino-1-[3-(difluoromethoxy)phenyl]ethyl}-8-[(2,6-difluorobenzyl)oxy]-2,6-dimethylimidazo[1,2-a]pyridine-3-carboxamide]
25 | 0.10 | Cc1nc2c(OCc3c(F)cccc3F)cccn2c1C(=O)NCC(C)(N)CC(C)C (single isomer, unassigned) [Example 203, ent-N-(2-Amino-2,4-dimethylpentyl)-8-[(2,6-difluorobenzyl)oxy]-2-methylimidazo[1,2-a]pyridine-3-carboxamide]

Source: patent US9624214B2, “Amino-substituted imidazo[1,2-a]pyridinecarboxamides and their use” (BAYER PHARMA AKTIENGESELLSCHAFT, priority 2012, dated 2017)
